# Source: US12202832B2, “Heterocyclic compounds having a calcium-sensing receptor antagonistic activity” (TAKEDA PHARMACEUTICAL COMPANY LIMITED, priority 2017, dated 2025)
# Key:
# CYP3A = assay: CYP induction (CYP3A activity in cryopreserved hepatocytes, P450-Glo CYP3A4 assay); assay type: in vitro ADME; conditions: % of positive control; inducibility by 10 μmol/L rifampicin defined as 100%; hepatocytes treated 3 days
# Protocol: Cryopreserved hepatocytes were thawed in a culture medium (In VitroGRO™ CP Medium, Celsis In Vitro Technologies, U.S.A.), and the resultant was added to BioCoat™ Matrigel®™ Matrix Thin-Layer 96 well (Becton, Dickinson and Company, U.S.A.) at a concentration of 40,000 cells/well. After culturing for 24 hours, the culture medium was removed, and replaced with an incubation medium (In VitroGRO™, HI Medium with Torpedo Antibiotic Mix, Celsis In Vitro Technologies, U.S.A.). Cells were cultured for an additional 3 days. The medium was removed on day 4, and the remained cells were treated in the induction medium containing a test compound for 3 days in the presence or absence of 10 μmol/L rifampicin. The induction medium was replaced every day. The test compound addition wells in the presence of 10 μmol/L rifampicin were used to evaluate the inhibitory effect of the test compound on the inducibility of the CYP3A activity by rifampicin. The CYP3A activity was evaluated by measuring luciferin generating amount after the addition of 2 μmol/L luciferin-IPA using IPA P450-Glo™ CYP3A4 assay systems (Promega Corporation, U.S.A.). All cultures were carried out under a humidified environment at 37° C., 5% CO2. The inducibility by rifampicin was defines as 100%, and the inducibility of the test compound (% of positive control) was calculated from the following equation: [(luciferin fluorescence intensity in the absence of rifampicin and the presence of test compound)−(luciferin fluorescence intensity in the absence of rifampicin and test compound)/(luciferin fluorescence intensity in the presence of rifampicin and the absence of test compound)−(Luciferin fluorescence intensity in the absence of rifampicin and test compound)]×100.
# CYP3A4 = target: T1, CYP3A4 (Homo sapiens, UniProt P08684); assay: CYP3A4 TDI in human liver microsomes (testosterone 6β-hydroxylation); assay type: in vitro ADME; conditions: 30 μM test compound, 60 min vs 0 min preincubation, solvent acetonitrile
# T1 construct: Human liver microsomes purchased from XenoTech, LLC (Lenexa, KS) was used; tissue XenoTech, LLC (Lenexa, KS); host or cells: human liver microsomes
# Protocol: Human liver microsomes purchased from XenoTech, LLC (Lenexa, KS) was used. Test compounds were dissolved in acetonitrile or DMSO/acetonitrile (1:4, v/v). To a human liver microsomes solution adjusted with phosphate buffer (pH 7.4), the test compound solution was added to obtain a human liver microsomes reaction solution having the test compound concentration of 30 μM. To the human liver microsome reaction solution, NADPH production system was added, and the mixture was preincubated at 37° C. for 0 minutes or 60 minutes. After the preincubation, probe substrate testosterone was added, and testosterone metabolite 6β-hydroxytestosterone was analyzed by LC/MS/MS to evaluate CYP3A4 enzymatic activity.
# The enzyme activity (% of control) at each preincubation point was calculated from the following equation: % of control={(activity of test compound addition group)/(activity of test compound non-addition group)}×100.
# The remaining activity (% remaining) after 60 minutes of preincubation was calculated from the following equation: Remaining activity (%)={activity after 60 minutes (% of control60 min)}/{activity after 0 minutes (% of control0 min)}×100.
# human CaSR = target: T2, human CaSR (Homo sapiens, UniProt P41180); assay: Human CaSR antagonist activity (NFAT-Luciferase reporter in CHO cells); assay type: cell-based; conditions: CHO, CaCl2 final 1.3 mM, 100% = reference antagonist at 10 μM, read-out: Inhibition rate (%) at 3.3 μM
# T2 construct: expressed in transfected cells; host or cells: CHO cells
# T2 sequence (P41180 20-1078): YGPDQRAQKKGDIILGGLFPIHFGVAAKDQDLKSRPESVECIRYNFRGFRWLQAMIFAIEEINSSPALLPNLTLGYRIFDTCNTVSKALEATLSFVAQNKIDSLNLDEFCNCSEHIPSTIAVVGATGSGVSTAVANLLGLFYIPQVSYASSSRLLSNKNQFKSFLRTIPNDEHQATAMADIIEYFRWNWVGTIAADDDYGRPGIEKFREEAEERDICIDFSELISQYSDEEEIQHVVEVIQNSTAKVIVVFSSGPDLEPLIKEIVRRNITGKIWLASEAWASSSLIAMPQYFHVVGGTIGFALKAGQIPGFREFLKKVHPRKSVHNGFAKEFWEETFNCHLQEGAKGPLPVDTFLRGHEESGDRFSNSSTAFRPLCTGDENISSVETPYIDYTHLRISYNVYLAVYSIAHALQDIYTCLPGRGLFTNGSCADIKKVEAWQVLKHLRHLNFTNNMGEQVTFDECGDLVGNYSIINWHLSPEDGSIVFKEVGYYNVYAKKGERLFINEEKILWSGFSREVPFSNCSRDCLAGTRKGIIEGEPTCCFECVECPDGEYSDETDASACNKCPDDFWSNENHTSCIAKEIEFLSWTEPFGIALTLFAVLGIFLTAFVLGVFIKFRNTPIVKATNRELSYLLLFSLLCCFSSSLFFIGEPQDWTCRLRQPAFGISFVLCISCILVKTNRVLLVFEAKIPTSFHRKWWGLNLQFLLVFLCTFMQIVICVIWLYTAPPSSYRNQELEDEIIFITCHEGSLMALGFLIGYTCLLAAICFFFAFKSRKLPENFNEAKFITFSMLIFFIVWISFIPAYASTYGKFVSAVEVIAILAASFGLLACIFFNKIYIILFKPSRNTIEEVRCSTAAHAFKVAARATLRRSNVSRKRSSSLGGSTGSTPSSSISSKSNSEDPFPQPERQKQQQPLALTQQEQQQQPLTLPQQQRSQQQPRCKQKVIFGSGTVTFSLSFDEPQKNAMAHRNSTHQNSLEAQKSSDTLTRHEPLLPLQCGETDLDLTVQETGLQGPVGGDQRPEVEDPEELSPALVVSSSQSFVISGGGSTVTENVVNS
# Protocol: CaSR antagonist activity measurement was performed using Bright-Glo Luciferase assay system (Promega Corporation). CHO cells in which human CaSR and NFAT-Luciferase reporter gene were forcibly expressed were suspended in MEM alpha (Wako Pure Chemical Industries, Ltd.) containing 10% dialyzed serum (HyClone). The cells in suspension was seeded in 384-well white plate (Corning) at 10,000/20 μL/well, and cultured in an incubator of 37° C., 5% CO2 for one day. A diluent of Test compound was prepared with assay buffer (MEM alpha containing 10 mM HEPES (Life Technologies) and 10% dialysis serum). The diluent was added to the plate at 5 μL/well and allowed to stand at 37° C. for 10 minutes. Further, a diluent of 7.8 mM CaCl2 prepared with assay buffer (final concentration 1.3 mM) was added at 5 μl/well and allowed to stand in an incubator of 37° C., 5% CO2 for 2 hours. Bright-Glo reagents (Promega Corporation) were added at 10 μL/well, and the obtained mixture was stirred for 5 minutes, and then luminescence intensity was measured using Multi-label reader Envision (PerkinElmer, Inc.). The activity (%) of the test compound was calculated with the definitions in which the luminescence intensity when DMSO is added in place of the test compound is defined as 0% inhibition; and the luminescence intensity when (5R)—N-(1-ethyl-1-(4-ethylphenyl)propyl)-2,7,7-trimethyl-5-phenyl-4,5,6,7-tetrahydropyrazolo[1,5-a] Pyrimidine-3-carboxamide at final concentration of 10 μM is added is defined as 100% inhibition.
# [1] = test system: aortic banding (TAC) models; conditions: cited from earlier work
# cardiac hypofunction = conditions: dosing after cardiac loading; cited from earlier work
# [2] = test system: monocrotaline (MCT)-induced pulmonary hypertension rats; conditions: cited from earlier work
# [3] = test system: hypoxia-induced pulmonary hypertension (HPH) mice; conditions: cited from earlier work
# T1 sequence (P08684 whole entry): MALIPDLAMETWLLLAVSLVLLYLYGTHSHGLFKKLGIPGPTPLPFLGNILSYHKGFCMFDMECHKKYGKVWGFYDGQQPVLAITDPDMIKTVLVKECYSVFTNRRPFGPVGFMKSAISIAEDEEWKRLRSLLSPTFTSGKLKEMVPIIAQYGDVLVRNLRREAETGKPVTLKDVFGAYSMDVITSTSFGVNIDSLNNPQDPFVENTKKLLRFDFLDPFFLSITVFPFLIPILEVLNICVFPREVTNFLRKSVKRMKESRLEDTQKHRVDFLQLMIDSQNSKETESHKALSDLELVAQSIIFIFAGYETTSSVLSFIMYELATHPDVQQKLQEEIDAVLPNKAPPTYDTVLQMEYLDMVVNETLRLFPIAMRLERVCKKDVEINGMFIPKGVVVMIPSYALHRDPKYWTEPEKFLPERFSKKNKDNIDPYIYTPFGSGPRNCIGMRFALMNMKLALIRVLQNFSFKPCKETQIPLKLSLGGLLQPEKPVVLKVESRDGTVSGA
Inducibility (CYP3A) [%],Remaining Activity (CYP3A4) [%],inhibition at 3.3 µM (human CaSR) [%],Structure (SMILES),Effect on cardiac hypertrophy [1],Effect on cardiac hypofunction (cardiac hypofunction),Effect on pulmonary hypertension pathology [2],Effect on pulmonary hypertension pathology [3]
20.8,95.6,102,"CCc1ccc(C(CC)(NC(=O)c2cnn3c2N[C@@H](c2ccccc2)CC3(C)C)C(=O)N[C@@H](C)C(N)=O)cc1 (single isomer, unassigned) [Example 4]",–,–,–,–
18.6,80.2,105,"CCc1ccc(C(CC)(NC(=O)c2cnn3c2N[C@@H](c2ccccc2)CC3(C)C)C(=O)N[C@@H](CC)C(N)=O)cc1 (single isomer, unassigned) [Example 6]",–,–,–,–
17.3,74.3,99,"CCc1ccc(C(CC)(NC(=O)c2cnn3c2N[C@@H](c2ccccc2)CC3(C)C)C(=O)N[C@H](C(N)=O)C(C)C)cc1 (single isomer, unassigned) [Example 12]",–,–,–,–
–,–,–,C[C@@H](N[C@H]1CCCC[C@@H]1NC(=O)c1ccc(Cl)cc1)c1cccc2ccccc12 [Calhex231],improves cardiac hypertrophy,fails to improve cardiac hypofunction,–,–
–,–,–,CC(C)(Cc1ccc2ccccc2c1)NC[C@@H](O)COc1cccc(Cl)c1C#N [NPS-2143],–,–,"suppressed cardiac hypertrophy, elevated right ventricular systolic pressure, fibrosis of cardiac muscle tissue, pulmonary vascular remodeling or the like","suppressed cardiac hypertrophy, elevated right ventricular systolic pressure, fibrosis of cardiac muscle tissue, pulmonary vascular remodeling or the like"
